# Laboratory results reported in patent US12496304B2, “Selective glucocorticoid receptor modifiers for treating impaired skin wound healing” (AKRIBES BIOMEDICAL GMBH, priority 2019, dated 2025).
# Legend:
# [1] = test system: primary human dermal fibroblasts (HDF); test: Fibroblast proliferation assay (2D) in the presence of wound exudate; format: cell-based
# Description: Primary human dermal fibroblasts (HDF) were purchased from CELLnTEC, Bern. They were routinely grown in Dulbecco's modified Eagle's medium (DMEM) containing 10% FCS, 2 mM glutamine, and 100 U/ml penicillin/100 μg/ml streptomycin. Media, antibiotics, and glutamine were bought from Lonza. The cells were used at passage 5-15. Cells were trypsinized and seeded at 2500 cells/well in 30 μl into the inner wells of 384-well plates in the absence or presence of graded compound concentrations with or without different dilutions of sterile-filtered WE in medium. For control samples, 30 μl medium was added instead of specific stimuli. The outer wells were loaded with sterile water. The cells were incubated for 72 hours at 37° C.
# At the end of the incubation period, supernatants were removed for the determination of IL-1β, and the cells were fixed with 4% paraformaldehyde (Morphisto) for 15 minutes at room temperature and washed 3 times with PBS. A control plate was fixed after the overnight adherence of the cells (day 1) to determine the starting cell number.
# Total cellular protein was determined as a measure of cell number by staining the fixed cells with sulforhodamine B (SRB, Sigma). A 0.4% SRB solution in 1% acetic acid was added to the wells for 30 minutes. The wells were then washed with 1% acetic acid until the wash solution remained colorless. After drying, the dye was eluted with 10 mM Tris-HCl, pH8.5, and absorbance was measured either at 550 or 492 nm for lower and higher cell densities, respectively. The average absorbance of the sample representing the day 1 starting cell number was subtracted from the absorbance values of the WE-treated cells.
# All experiments were carried out in triplicate for each sample and concentration, and means±standard deviation (SD) were used for the evaluation of the experiment. Results are expressed as percentage of control values for unstimulated cells.
# [2] = test system: IL-8; test: Primary human monocyte cytokine secretion assay (spontaneous IL-8); format: cell-based; details: 16 hours (FIG. 16B)
# Description: Primary human monocytes were prepared from peripheral blood mononuclear cells (PBMC). PBMC were isolated from buffy coats obtained from the Red Cross, Vienna, using LymphoPrep (Technoclone). 30 ml of buffy concentrate was diluted 1:2 with PBS, gently underlayered with 15 ml Lymphoprep in a 50 ml Falcon tube and centrifuged for 25 minutes at 1800 rpm at 21° C. The interphase was carefully transferred to a new Falcon tube and filled up to 50 ml with ice cold PBS. After another centrifugation step (10 minutes, 1200 rpm, 4° C.), the cell pellet was washed 3 times with PBS, resuspended in RPMI medium containing 20% FCS and 10% DMSO and frozen in liquid nitrogen. Monocytes were generated from frozen aliquots using positive selection with the CD14 Beads-Kit (Miltenyi) on an autoMACS-Sorter (Miltenyi) according to the manufacturer's instructions.
# Cells were seeded at 8×10^5/ml in 50 μl/well of a 384-well plate and combined cells with graded concentrations of test compounds. After 16 hours, the supernatants were transferred to fresh plates and frozen at −20° C. for IL-8 analysis, using a commercial ELISA kit.
# [3] = test system: full-thickness excisional wounds; test: Delayed wound healing in a pig model; format: in vivo
# Description: The animal experiments were approved by governmental authorities. Two young farm pigs (10-12 kg) were anesthetized and full-thickness excisional wounds were developed using a 6 mm biopsy punch. During the first 5 days after wounding, the wounds were stimulated with a) 0.05% R848 (resiquimod) and 50 μl human wound exudate, b) 0.05% R848 and human serum or c) human serum alone. R848 was applied in the mornings and exudate and serum 6 hours later, in 50 μl of solutions gelified by the addition of 2% HPMC. On days 6-10, wounds were treated once daily with mapracorat or vehicle (50% PG/47.5% H2O/0.5% Tween 80/2% HPMC). The wounds were clinically scored daily. The total wound score (maximum score=21) consisted of wound appearance (dry vs. moist), size, wound content, pus, crust, erythema intensity, erythema width, swelling and necrosis. Reported values are individual values for each of the 2 pigs.
# [4] = test system: Collagen 1a; test: mRNA expression in fibroblast cultures (qRT-PCR): collagen 1; format: cell-based, human; details: WE-1, graded concentrations, 72-hour incubation (FIG. 6A)
# Description: Cells were seeded into 24-well plates and incubated with compounds in the presence or absence of wound exudates for 72 hours. Total RNA was isolated using the RNeasy Mini Kit (QIAGEN #74106) according to the manufacturer's protocol. RNA integrity and concentration for each sample was confirmed and measured with the Qubit fluorometer. Each RNA sample was then diluted to 2 ng/μl in nuclease-free doubly distilled water.
# 20 ng of total RNA were reverse-transcribed into cDNA and immediately subjected to PCR amplification using the SuperScript Ill Platinum One-Step Quantitative RT-PCR System with ROX (Invitrogen #11745). qRT-PCR amplifications were performed in 20 μl reactions containing 9 μl 2× Reaction Mix with ROX, 0.4 μl SuperScript III RT/Platinum Taq Mix and 1 μl primer (final: 900 nM, Taqman Gene Expression Assay, Applied Biosystems)
# The program included 30 minutes of reverse transcription at 48° C., an initial denaturation for 5 minutes at 95° C. followed by 40 cycles of denaturation at 95° C. for 15 seconds and annealing at 60° C. for 60 seconds. Reactions were set up in 96-well format PCR plates (Peqlab #732-2879) and carried out in a Mx3005P Real-Time PCR Detection System (Stratagene).
# TaqMan Gene Expression Assays (Applied Biosystems) were used, which include preoptimized probe and primer sets specific for the genes being validated. The sequences and ID numbers are listed below:
# The house keeping gene elongation factor 1a (EF1a) was used as a reference gene. Normalized expression was calculated using the comparative Ct (or ΔCt) method, and fold changes were derived from the 2-ΔΔCt values for each gene. Graphs were prepared using relative Ct values that were calculated by subtracting the EF1a Ct values from the corresponding Ct values for the gene being measured.
structure (smiles),measurement,setting,value
Cc1ccc2c(NC[C@](O)(CC(C)(C)c3cc(F)cc4c3OCC4)C(F)(F)F)cccc2n1 [Mapracorat],effect on fibroblast proliferation in the presence of >80 human wound exudates,[1]; >80 human wound exudates from chronic wound patients,> 120%
same,fibroblast proliferation (2D) with wound exudate,"[1]; WE-4 (FIG. 5), graded concentrations",dose-dependently reversed inhibition of wound exudate (WE)-induced fibroblast proliferation
same,spontaneous IL-8 secretion in human monocytes,[2],inhibited both LPS-induced and spontaneous IL-8 secretion
same,total wound score,"[3]; 10 mM and 1 mM, once daily days 6-10, WE-01, WE-02 and R848 as inducers of delayed wound healing",reduced the wound score from days 6 to 12
same,healing of control wounds,[3]; control wounds in the presence of human serum (FIG. 13D),did not have any negative effect on the healing of control wounds
same,collagen 1 mRNA expression,[4],dose-dependently enhanced collagen 1 mRNA expression in the presence of WE
